In US20230017045A1, “PYRIDINE AND PYRIMIDINE CARBOXYLATE HERBICIDES AND METHODS OF USE THEREOF” (Dow AgroSciences LLC, priority 2017, published 2023):

System: test plant species
Assay: Post-emergent herbicidal activity test (greenhouse, foliar spray, visual growth reduction)
Type: in vivo
Details: post-emergence, 336 h, ALOMY: blackgrass (Alopecurus myosuroides), 140 g ai/ha, 14 days after application, read-out: Visual Growth Reduction (%) 14 Days After Application, ALOMY
Method in brief: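 Seedlings were raised 7-21 d in a greenhouse under a 15 h photoperiod until the first or second true leaf. Each compound, dissolved in acetone:DMSO 97:3 and diluted into a surfactant-containing spray mixture, was then applied at 187 L/ha. Plants were subirrigated, and growth reduction was scored visually at 14 d.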

Row | SMILES | pest or weed control at 140 g/ha [%]
1 | COC(=O)c1nc(-c2c(F)cc(Cl)cc2Cl)ccc1Cl [F62, Methyl 3-chloro-6-(2,4-dichloro-6-fluorophenyl) picolinate] | 0 to 29

Same assay, conditions: post-emergence, 336 h, AMARE: redroot pigweed (Amaranthus retroflexus), 140 g ai/ha, 14 days after application, read-out: Visual Growth Reduction (%) 14 Days After Application, AMARE

Row | SMILES | pest or weed control at 140 g/ha [%]
2 | COC(=O)c1nc(-c2c(F)cc(Cl)cc2Cl)ccc1Cl [F62, Methyl 3-chloro-6-(2,4-dichloro-6-fluorophenyl) picolinate] | 95 to 100

Same assay, conditions: post-emergence, 336 h, AVEFA: wild oat (Avena fatua), 140 g ai/ha, 14 days after application, read-out: Visual Growth Reduction (%) 14 Days After Application, AVEFA

Row | SMILES | pest or weed control at 140 g/ha [%]
3 | COC(=O)c1nc(-c2c(F)cc(Cl)cc2Cl)ccc1Cl [F62, Methyl 3-chloro-6-(2,4-dichloro-6-fluorophenyl) picolinate] | 0 to 29

Same assay, conditions: post-emergence, 336 h, CHEAL: lambsquarters (Chenopodium album), 140 g ai/ha, 14 days after application, read-out: Visual Growth Reduction (%) 14 Days After Application, CHEAL

Row | SMILES | pest or weed control at 140 g/ha [%]
4 | COC(=O)c1nc(-c2c(F)cc(Cl)cc2Cl)ccc1Cl [F62, Methyl 3-chloro-6-(2,4-dichloro-6-fluorophenyl) picolinate] | 75 to 84

Same assay, conditions: post-emergence, 336 h, CIRAR: canada thistle (Cirsium arvense), 140 g ai/ha, 14 days after application, read-out: Visual Growth Reduction (%) 14 Days After Application, CIRAR

Row | SMILES | pest or weed control at 140 g/ha [%]
5 | COC(=O)c1nc(-c2c(F)cc(Cl)cc2Cl)ccc1Cl [F62, Methyl 3-chloro-6-(2,4-dichloro-6-fluorophenyl) picolinate] | 75 to 84

Same assay, conditions: post-emergence, 336 h, CYPES: yellow nutsedge (Cyperus esculentus), 140 g ai/ha, 14 days after application, read-out: Visual Growth Reduction (%) 14 Days After Application, CYPES

Row | SMILES | pest or weed control at 140 g/ha [%]
6 | COC(=O)c1nc(-c2c(F)cc(Cl)cc2Cl)ccc1Cl [F62, Methyl 3-chloro-6-(2,4-dichloro-6-fluorophenyl) picolinate] | 0 to 29

Same assay, conditions: post-emergence, 336 h, DIGSA: crabgrass (Digitaria sanguinalis), 140 g ai/ha, 14 days after application, read-out: Visual Growth Reduction (%) 14 Days After Application, DIGSA

Row | SMILES | pest or weed control at 140 g/ha [%]
7 | COC(=O)c1nc(-c2c(F)cc(Cl)cc2Cl)ccc1Cl [F62, Methyl 3-chloro-6-(2,4-dichloro-6-fluorophenyl) picolinate] | 75 to 84

Same assay, conditions: post-emergence, 336 h, ECHCG: barnyardgrass (Echinochloa crus-galli), 140 g ai/ha, 14 days after application, read-out: Visual Growth Reduction (%) 14 Days After Application, ECHCG

Row | SMILES | pest or weed control at 140 g/ha [%]
8 | COC(=O)c1nc(-c2ccc(OS(C)(=O)=O)cc2Cl)ccc1Cl [F288, methyl 3-chloro-6-(2-chloro-4-((methylsulfonyl)oxy)phenyl)picolinate] | 60 to 74
9 | COC(=O)c1nc(-c2cc(F)c3c(c2)OC(F)(F)O3)c(F)cc1Cl [F240, Methyl 3-chloro-5-fluoro-6-(2,2,7-trifluorobenzo[d][1,3]dioxol-5-yl)picolinate] | 0 to 29

Same assay, conditions: post-emergence, 336 h, IPOHE: ivy-leaf morning glory (Ipomoea hederacea), 140 g ai/ha, 14 days after application, read-out: Visual Growth Reduction (%) 14 Days After Application, IPOHE

Row | SMILES | pest or weed control at 140 g/ha [%]
10 | COC(=O)c1nc(-c2ccc(OS(C)(=O)=O)cc2Cl)ccc1Cl [F288, methyl 3-chloro-6-(2-chloro-4-((methylsulfonyl)oxy)phenyl)picolinate] | 95 to 100
11 | COC(=O)c1nc(-c2cc(F)c3c(c2)OC(F)(F)O3)c(F)cc1Cl [F240, Methyl 3-chloro-5-fluoro-6-(2,2,7-trifluorobenzo[d][1,3]dioxol-5-yl)picolinate] | 95 to 100
12 | COC(=O)c1nc(-c2c(F)cc(Cl)cc2Cl)ccc1Cl [F62, Methyl 3-chloro-6-(2,4-dichloro-6-fluorophenyl) picolinate] | 95 to 100

Same assay, conditions: post-emergence, 336 h, KCHSC: kochia (Bassia scoparia), 140 g ai/ha, 14 days after application, read-out: Visual Growth Reduction (%) 14 Days After Application, KCHSC

Row | SMILES | pest or weed control at 140 g/ha [%]
13 | COC(=O)c1nc(-c2ccc(OS(C)(=O)=O)cc2Cl)ccc1Cl [F288, methyl 3-chloro-6-(2-chloro-4-((methylsulfonyl)oxy)phenyl)picolinate] | 75 to 84
14 | COC(=O)c1nc(-c2cc(F)c3c(c2)OC(F)(F)O3)c(F)cc1Cl [F240, Methyl 3-chloro-5-fluoro-6-(2,2,7-trifluorobenzo[d][1,3]dioxol-5-yl)picolinate] | 0 to 29
15 | COC(=O)c1nc(-c2c(F)cc(Cl)cc2Cl)ccc1Cl [F62, Methyl 3-chloro-6-(2,4-dichloro-6-fluorophenyl) picolinate] | 60 to 74

Same assay, conditions: post-emergence, 336 h, ORYSA: rice (Oryza sativa), 140 g ai/ha, 14 days after application, read-out: Visual Growth Reduction (%) 14 Days After Application, ORYSA

Row | SMILES | pest or weed control at 140 g/ha [%]
16 | COC(=O)c1nc(-c2ccc(OS(C)(=O)=O)cc2Cl)ccc1Cl [F288, methyl 3-chloro-6-(2-chloro-4-((methylsulfonyl)oxy)phenyl)picolinate] | 0 to 29
17 | COC(=O)c1nc(-c2cc(F)c3c(c2)OC(F)(F)O3)c(F)cc1Cl [F240, Methyl 3-chloro-5-fluoro-6-(2,2,7-trifluorobenzo[d][1,3]dioxol-5-yl)picolinate] | 0 to 29
18 | COC(=O)c1nc(-c2c(F)cc(Cl)cc2Cl)ccc1Cl [F62, Methyl 3-chloro-6-(2,4-dichloro-6-fluorophenyl) picolinate] | 0 to 29

Same assay, conditions: post-emergence, 336 h, SETFA: giant foxtail (Setaria faberi), 140 g ai/ha, 14 days after application, read-out: Visual Growth Reduction (%) 14 Days After Application, SETFA

Row | SMILES | pest or weed control at 140 g/ha [%]
19 | COC(=O)c1nc(-c2ccc(OS(C)(=O)=O)cc2Cl)ccc1Cl [F288, methyl 3-chloro-6-(2-chloro-4-((methylsulfonyl)oxy)phenyl)picolinate] | 60 to 74
20 | COC(=O)c1nc(-c2cc(F)c3c(c2)OC(F)(F)O3)c(F)cc1Cl [F240, Methyl 3-chloro-5-fluoro-6-(2,2,7-trifluorobenzo[d][1,3]dioxol-5-yl)picolinate] | 0 to 29
21 | COC(=O)c1nc(-c2c(F)cc(Cl)cc2Cl)ccc1Cl [F62, Methyl 3-chloro-6-(2,4-dichloro-6-fluorophenyl) picolinate] | 75 to 84

Same assay, conditions: post-emergence, 336 h, SORVU: grain sorghum (Sorghum vulgare), 140 g ai/ha, 14 days after application, read-out: Visual Growth Reduction (%) 14 Days After Application, SORVU

Row | SMILES | pest or weed control at 140 g/ha [%]
22 | COC(=O)c1nc(-c2ccc(OS(C)(=O)=O)cc2Cl)ccc1Cl [F288, methyl 3-chloro-6-(2-chloro-4-((methylsulfonyl)oxy)phenyl)picolinate] | 85 to 94
23 | COC(=O)c1nc(-c2cc(F)c3c(c2)OC(F)(F)O3)c(F)cc1Cl [F240, Methyl 3-chloro-5-fluoro-6-(2,2,7-trifluorobenzo[d][1,3]dioxol-5-yl)picolinate] | 75 to 84
24 | COC(=O)c1nc(-c2c(F)cc(Cl)cc2Cl)ccc1Cl [F62, Methyl 3-chloro-6-(2,4-dichloro-6-fluorophenyl) picolinate] | 85 to 94

Same assay, conditions: post-emergence, 336 h, STEME: common chickweed (Stellaria media), 140 g ai/ha, 14 days after application, read-out: Visual Growth Reduction (%) 14 Days After Application, STEME

Row | SMILES | pest or weed control at 140 g/ha [%]
25 | COC(=O)c1nc(-c2ccc(OS(C)(=O)=O)cc2Cl)ccc1Cl [F288, methyl 3-chloro-6-(2-chloro-4-((methylsulfonyl)oxy)phenyl)picolinate] | 0 to 29
26 | COC(=O)c1nc(-c2cc(F)c3c(c2)OC(F)(F)O3)c(F)cc1Cl [F240, Methyl 3-chloro-5-fluoro-6-(2,2,7-trifluorobenzo[d][1,3]dioxol-5-yl)picolinate] | 0 to 29
27 | COC(=O)c1nc(-c2c(F)cc(Cl)cc2Cl)ccc1Cl [F62, Methyl 3-chloro-6-(2,4-dichloro-6-fluorophenyl) picolinate] | 0 to 29

Same assay, conditions: post-emergence, 336 h, TRZAS: wheat, spring (Triticum aestivum), 140 g ai/ha, 14 days after application, read-out: Visual Growth Reduction (%) 14 Days After Application, TRZAS

Row | SMILES | pest or weed control at 140 g/ha [%]
28 | COC(=O)c1nc(-c2ccc(OS(C)(=O)=O)cc2Cl)ccc1Cl [F288, methyl 3-chloro-6-(2-chloro-4-((methylsulfonyl)oxy)phenyl)picolinate] | 30 to 44
29 | COC(=O)c1nc(-c2cc(F)c3c(c2)OC(F)(F)O3)c(F)cc1Cl [F240, Methyl 3-chloro-5-fluoro-6-(2,2,7-trifluorobenzo[d][1,3]dioxol-5-yl)picolinate] | 0 to 29

Same assay, conditions: post-emergence, 336 h, blackgrass (Alopecurus myosuroides), 14 Days After Application, 140 g ai/ha, read-out: Visual Growth Reduction (%) ALOMY

Row | SMILES | pest or weed control at 140 g/ha [%]
30 | COC(=O)c1nc(-c2ccc(OS(C)(=O)=O)cc2Cl)ccc1Cl [F288, methyl 3-chloro-6-(2-chloro-4-((methylsulfonyl)oxy)phenyl)picolinate] | 0 to 29
31 | COC(=O)c1nc(-c2cc(F)c3c(c2)OC(F)(F)O3)c(F)cc1Cl [F240, Methyl 3-chloro-5-fluoro-6-(2,2,7-trifluorobenzo[d][1,3]dioxol-5-yl)picolinate] | 0 to 29

Same assay, conditions: post-emergence, 336 h, canada thistle (Cirsium arvense), 14 Days After Application, 140 g ai/ha, read-out: Visual Growth Reduction (%) CIRAR

Row | SMILES | pest or weed control at 140 g/ha [%]
32 | COC(=O)c1nc(-c2ccc(OS(C)(=O)=O)cc2Cl)ccc1Cl [F288, methyl 3-chloro-6-(2-chloro-4-((methylsulfonyl)oxy)phenyl)picolinate] | 95 to 100
33 | COC(=O)c1nc(-c2cc(F)c3c(c2)OC(F)(F)O3)c(F)cc1Cl [F240, Methyl 3-chloro-5-fluoro-6-(2,2,7-trifluorobenzo[d][1,3]dioxol-5-yl)picolinate] | 0 to 29

Same assay, conditions: post-emergence, 336 h, crabgrass (Digitaria sanguinalis), 14 Days After Application, 140 g ai/ha, read-out: Visual Growth Reduction (%) DIGSA

Row | SMILES | pest or weed control at 140 g/ha [%]
34 | COC(=O)c1nc(-c2ccc(OS(C)(=O)=O)cc2Cl)ccc1Cl [F288, methyl 3-chloro-6-(2-chloro-4-((methylsulfonyl)oxy)phenyl)picolinate] | 75 to 84
35 | COC(=O)c1nc(-c2cc(F)c3c(c2)OC(F)(F)O3)c(F)cc1Cl [F240, Methyl 3-chloro-5-fluoro-6-(2,2,7-trifluorobenzo[d][1,3]dioxol-5-yl)picolinate] | 95 to 100

Same assay, conditions: post-emergence, 336 h, lambsquarters (Chenopodium album), 14 Days After Application, 140 g ai/ha, read-out: Visual Growth Reduction (%) CHEAL

Row | SMILES | pest or weed control at 140 g/ha [%]
36 | COC(=O)c1nc(-c2ccc(OS(C)(=O)=O)cc2Cl)ccc1Cl [F288, methyl 3-chloro-6-(2-chloro-4-((methylsulfonyl)oxy)phenyl)picolinate] | 85 to 94
37 | COC(=O)c1nc(-c2cc(F)c3c(c2)OC(F)(F)O3)c(F)cc1Cl [F240, Methyl 3-chloro-5-fluoro-6-(2,2,7-trifluorobenzo[d][1,3]dioxol-5-yl)picolinate] | 60 to 74

Same assay, conditions: post-emergence, 336 h, redroot pigweed (Amaranthus retroflexus), 14 Days After Application, 140 g ai/ha, read-out: Visual Growth Reduction (%) AMARE

Row | SMILES | pest or weed control at 140 g/ha [%]
38 | COC(=O)c1nc(-c2ccc(OS(C)(=O)=O)cc2Cl)ccc1Cl [F288, methyl 3-chloro-6-(2-chloro-4-((methylsulfonyl)oxy)phenyl)picolinate] | 85 to 94
39 | COC(=O)c1nc(-c2cc(F)c3c(c2)OC(F)(F)O3)c(F)cc1Cl [F240, Methyl 3-chloro-5-fluoro-6-(2,2,7-trifluorobenzo[d][1,3]dioxol-5-yl)picolinate] | 30 to 44

Same assay, conditions: post-emergence, 336 h, wild oat (Avena fatua), 14 Days After Application, 140 g ai/ha, read-out: Visual Growth Reduction (%) AVEFA

Row | SMILES | pest or weed control at 140 g/ha [%]
40 | COC(=O)c1nc(-c2ccc(OS(C)(=O)=O)cc2Cl)ccc1Cl [F288, methyl 3-chloro-6-(2-chloro-4-((methylsulfonyl)oxy)phenyl)picolinate] | 0 to 29
41 | COC(=O)c1nc(-c2cc(F)c3c(c2)OC(F)(F)O3)c(F)cc1Cl [F240, Methyl 3-chloro-5-fluoro-6-(2,2,7-trifluorobenzo[d][1,3]dioxol-5-yl)picolinate] | 0 to 29

Same assay, conditions: post-emergence, 336 h, yellow nutsedge (Cyperus esculentus), 14 Days After Application, 140 g ai/ha, read-out: Visual Growth Reduction (%) CYPES

Row | SMILES | pest or weed control at 140 g/ha [%]
42 | COC(=O)c1nc(-c2ccc(OS(C)(=O)=O)cc2Cl)ccc1Cl [F288, methyl 3-chloro-6-(2-chloro-4-((methylsulfonyl)oxy)phenyl)picolinate] | 0 to 29
43 | COC(=O)c1nc(-c2cc(F)c3c(c2)OC(F)(F)O3)c(F)cc1Cl [F240, Methyl 3-chloro-5-fluoro-6-(2,2,7-trifluorobenzo[d][1,3]dioxol-5-yl)picolinate] | 0 to 29
